Data taken from PubChem BioAssay (NCI).
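Following 48 hours of exposure in 96-well plates, responses at five concentrations were used to interpolate endpoints linearly. Here, GI50 denotes the concentration required for 50% inhibition of growth. TGI denotes the concentration required for complete inhibition of growth.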

Legend:
Test in all cases: DTP human tumour cell line panel, 48 h
[1] = test system: SW-620 colon
[2] = test system: HL-60(TB) leukemia
[3] = test system: SNB-19 CNS
[4] = test system: UACC-62 melanoma
[5] = test system: OVCAR-4 ovarian
[6] = test system: SF-295 CNS
[7] = test system: OVCAR-8 ovarian
[8] = test system: SK-MEL-5 melanoma
[9] = test system: HCT-15 colon
[10] = test system: OVCAR-5 ovarian

Structure (SMILES): O=c1[nH]c2cc([N+](=O)[O-])ccc2nc1/C(=N\Nc1ccccc1)C(O)c1ccc2c(c1)OCO2 (stereo not given)
- TGI [1]: > 100 µM
- TGI [2]: > 100 µM
- TGI [3]: > 100 µM
- TGI [4]: > 100 µM
- TGI [5]: > 100 µM
- TGI [6]: > 100 µM
- TGI [7]: > 100 µM
- TGI [8]: > 100 µM
- TGI [9]: 58.2 µM

Structure (SMILES): Cc1ccccc1/C=C/C(=O)c1ccccc1
- TGI [1]: > 10 µM
- TGI [3]: 30.3 µM
- TGI [4]: 38 µM
- TGI [5]: 33.2 µM
- TGI [7]: 63.9 µM
- TGI [8]: > 10 µM
- TGI [10]: 30.9 µM
- TGI [9]: > 10 µM

Structure (SMILES): CCOC(=O)N1CCN(CCCCCOc2ccccc2C2CCCCC2)CC1
- GI50 [1]: 3.08 µM
- TGI [1]: 9.81 µM
- GI50 [2]: 1.39 µM
- TGI [2]: 3.5 µM
- GI50 [3]: 10.7 µM
- TGI [3]: 22.6 µM
- GI50 [4]: 4.86 µM
- TGI [4]: 19.7 µM
- GI50 [5]: 9.2 µM
- TGI [5]: 22.2 µM
- GI50 [6]: 2.65 µM
- TGI [6]: 13.9 µM
- GI50 [8]: 1.52 µM
- TGI [8]: 3.53 µM
- GI50 [9]: 3.09 µM
- TGI [9]: 12.9 µM

Structure (SMILES): Cc1ccc2oc(=O)c(-c3ccccc3)nc2c1
- TGI [1]: > 100 µM
- TGI [3]: > 100 µM
- TGI [5]: 75.2 µM
- TGI [6]: > 100 µM
- TGI [7]: > 100 µM
- TGI [8]: > 100 µM
- TGI [10]: 99.8 µM
- TGI [9]: 96.9 µM

Structure (SMILES): Cc1cccc(C)c1N1C(=O)C(=O)C(c2nc3ccccc3s2)/C(=N/NC(=O)NN)C1=O (stereo not given)
- TGI [1]: > 100 µM
- TGI [2]: > 100 µM
- TGI [3]: > 100 µM
- TGI [4]: > 100 µM
- TGI [5]: > 100 µM
- TGI [6]: > 100 µM
- TGI [7]: > 100 µM
- TGI [8]: > 100 µM
- TGI [9]: > 100 µM

Structure (SMILES): CN1c2ccccc2SC2C(c3ccccc3)=NOC21 (stereo not given)
- TGI [1]: > 100 µM
- TGI [2]: > 100 µM
- TGI [3]: > 100 µM
- TGI [4]: > 100 µM
- TGI [5]: > 100 µM
- TGI [6]: > 100 µM
- TGI [7]: > 100 µM
- TGI [10]: > 100 µM
- TGI [9]: 43.7 µM

Structure (SMILES): CC(C)(C)OC(=O)NC1CCCC1=O (stereo not given)
- TGI [1]: > 100 µM
- TGI [3]: > 100 µM
- TGI [4]: > 100 µM
- TGI [5]: > 100 µM
- TGI [6]: > 100 µM
- TGI [7]: > 100 µM
- TGI [8]: > 100 µM
- TGI [10]: > 100 µM

Structure (SMILES): O=C1CNS(=O)(=O)N1
- TGI [1]: > 100 µM
- TGI [2]: > 100 µM
- TGI [3]: > 100 µM
- TGI [4]: > 100 µM
- TGI [5]: > 100 µM
- TGI [6]: > 100 µM
- TGI [7]: > 100 µM

Structure (SMILES): O=C(/C=C/c1cccc(O)c1)c1cccc(-n2cc(-c3ccc4ccccc4c3)[nH]c2=O)c1
- GI50 [1]: 0.223 µM
- TGI [1]: 0.605 µM
- GI50 [2]: 1.01 µM
- TGI [2]: 3.21 µM
- GI50 [3]: 1.32 µM
- TGI [3]: 4.13 µM
- GI50 [4]: 1.8 µM
- TGI [4]: 4.92 µM
- GI50 [6]: 1.44 µM
- TGI [6]: 3.63 µM
- GI50 [7]: 2.33 µM
- TGI [7]: > 100 µM
- GI50 [8]: 1.16 µM
- TGI [8]: 2.41 µM
- GI50 [10]: 1.89 µM
- TGI [10]: 3.6 µM
- GI50 [9]: 1.56 µM
- TGI [9]: 4.8 µM

Structure (SMILES): COc1c(O)c(OC)c2oc(-c3ccc(O)cc3)c(OC)c(=O)c2c1O
- TGI [1]: > 100 µM
- TGI [2]: > 100 µM
- TGI [3]: > 100 µM
- TGI [4]: > 100 µM
- TGI [6]: > 100 µM
- TGI [7]: > 100 µM
- TGI [8]: > 100 µM
- TGI [10]: > 100 µM
- TGI [9]: > 100 µM

Structure (SMILES): CCCCCCC(C)CCCCCCCCCCC(=O)O (stereo not given)
- TGI [1]: > 100 µM
- TGI [2]: > 100 µM
- TGI [3]: > 100 µM
- TGI [4]: > 100 µM
- TGI [5]: > 100 µM
- TGI [6]: > 100 µM
- TGI [7]: > 100 µM
- TGI [8]: > 100 µM
- TGI [10]: > 100 µM
